# “Also recorded” adds a separate entry of the source.
# What was measured:
# [1] = test system: Type II collagen-induced arthritis (CIA); experiment: Collagen-induced arthritis (CIA) mouse model, clinical assessment; type: in vivo, DBA/1 LacJ mice; conditions: vs saline control mice; for number of involved (arthritic) paws: Formula III 40 mg/kg i.p. ×3/week or gavaged ×5/week, Enbrel 100 μg i.p. ×3/week, prednisolone 10 mg/kg gavaged ×5/week
# Source text: Type II collagen-induced arthritis (CIA) in mice is an accepted experimental model of arthritis with a number of pathological, immunological and genetic features in common with rheumatoid arthritis. This disease is induced by immunization of susceptible strains of mice with type II collagen, the major component of joint cartilage. A progressive, inflammatory arthritis develops in the majority of immunized animals, which is characterized clinically by erythema and edema, with affected paw width increases of typically 100%. A clinical scoring index has been developed to assess disease progression to joint distortion and spondylitis. […] Immunological laboratory findings include high antibody levels to type II collagen and hypergammaglobulinemia.
# (§1) This study was designed to evaluate the anti-inflammatory and anti-arthritic activity of compound of Formula III using the CIA model by observing changes in immune parameters due to treatment. The animals were administered oral corticosteroid, Enbrel, an injectable TNF inhibitor, and compound of Formula III using both oral and parenteral delivery. Seventy-five DBA/1 LacJ mice 8-10 weeks of age were obtained from Jackson Labs and quarantined in our facility for 10 days prior to experimentation. All mice weighed >16 grams at the start of the experiment. Mice were pre-bled by retro-orbital puncture, and injected with 100 μg Bovine type II collagen in Freund's complete adjuvant (FCA) intradermally at the base of the tail. Mice were monitored by daily examination for the onset of disease. Mice that developed CIA between 20 days post immunization and 42 days post immunization were assigned to one of five treatment groups on a rotational basis (to normalize onset date), and ten mice were assigned to each group. For administration, compound of Formula III was solubilized in sterile saline. To facilitate drugs delivered by oral administration, carboxymethylcellulose was added to a final concentration of 4% in all gavage solutions. Compounds were administered according to the following schedule: • Group 1. 100 μl sterile saline vehicle injected intraperitoneally (i.p.) ×3/week. • Group 2. 100 μl sterile saline containing compound of Formula III at 40 mg/kg injected i.p. ×3/week. • Group 3. 100 μl sterile saline containing 100 μg Enbrel injected i.p. ×3/week. • Group 4. 100 μl sterile saline containing compound of Formula III at 40 mg/kg gavaged ×5/week. • Group 5. 100 μl sterile saline containing prednisolone 10 mg/kg gavaged ×5/week.
# Mice were weighed weekly, and overall health status noted. Arthritic animals were clinically assessed by visual inspection five times per week, and paw swelling quantified by caliper measurements made three times per week, until seven weeks after the initial onset of arthritis. All animals were assessed individually from the time of disease onset, and the appropriate findings were entered into clinical report forms.
# [2] = test system: anti-type II collagen antibody; type: in vivo, DBA/1 LacJ mice; conditions: after seven weeks of treatment, Prednisolone 10 mg/kg gavaged ×5/week, Formula III 40 mg/kg i.p. ×3/week; for terminal anti-CII antibody levels compared with control mice: p<0.01
# Method: as §1
# All mice were pre-bled prior to the start of the trial, subsequently at onset of arthritis and at the completion of the trial. Sera were separated and stored at −80° C. ELISA assays were performed to determine anti-type II collagen antibody levels and total immunoglobulin levels.
# ELISA plates (Nunc-Immuno plates, Denmark) were coated with 100 μl of coating buffer (0.4M phosphate buffer ph7.6) containing 5 μg of type II collagen, at 4° C. overnight. Plates were washed 3 times with PBS containing 0.05% Tween 20 (Sigma, St. Louis, Mo.) and non specific binding was blocked by PBS containing 5% non fat milk overnight at 4° C. Mouse sera diluted to 1/100 in 5% milk/PBS was added to each well and incubated overnight at 4° C. […] The resulting optical density was measured at 405 nm by using a UV max spectrophotometer (Molecular Devices, CA). […] Antibody binding was expressed as OD405 units-blank.
# total serum Ig = experiment: Total serum immunoglobulin levels in CIA mice (ELISA); type: in vivo, DBA/1 LacJ mice; conditions: Prednisolone 10 mg/kg gavaged ×5/week; Formula III 40 mg/kg i.p. ×3/week
# Method: This study was designed to evaluate the anti-inflammatory and anti-arthritic activity of compound of Formula III using the CIA model by observing changes in immune parameters due to treatment. The animals were administered oral corticosteroid, Enbrel, an injectable TNF inhibitor, and compound of Formula III using both oral and parenteral delivery. Seventy-five DBA/1 LacJ mice 8-10 weeks of age were obtained from Jackson Labs and quarantined in our facility for 10 days prior to experimentation. All mice weighed >16 grams at the start of the experiment. Mice were pre-bled by retro-orbital puncture, and injected with 100 μg Bovine type II collagen in Freund's complete adjuvant (FCA) intradermally at the base of the tail. Mice were monitored by daily examination for the onset of disease. Mice that developed CIA between 20 days post immunization and 42 days post immunization were assigned to one of five treatment groups on a rotational basis (to normalize onset date), and ten mice were assigned to each group. For administration, compound of Formula III was solubilized in sterile saline. […]
# Serum Ig levels was assessed using an ELISA assay. […] The plate was read at 405 nm using a Photospectrometer (Molecular Devices), and the data analyzed using the SOFTmax analytical software package. […]
# lymph node cells = experiment: Lymph node cell mitogen and antigen proliferative responses (MTT) from treated CIA mice; type: in vivo, DBA/1 LacJ mice; conditions: mice treated 40 mg/kg i.p. ×3/week; p<0.05
# Method: This study was designed to evaluate the anti-inflammatory and anti-arthritic activity of compound of Formula III using the CIA model by observing changes in immune parameters due to treatment. The animals were administered oral corticosteroid, Enbrel, an injectable TNF inhibitor, and compound of Formula III using both oral and parenteral delivery. Seventy-five DBA/1 LacJ mice 8-10 weeks of age were obtained from Jackson Labs and quarantined in our facility for 10 days prior to experimentation. All mice weighed >16 grams at the start of the experiment. […] Mice were monitored by daily examination for the onset of disease. […]
# Spleen and lymph nodes were removed at sacrifice, and mitogen responses to Con A and LPS, and antigen proliferative responses to type II collagen were determined using standard techniques. […] After incubation at 37° C. overnight, the optical density at 590 nm was read using a microplate photospectrometer (Molecular Devices, CA). The mean and OD values, which provide a measure of cell proliferation, were recorded for each cell sample with respect to antigen stimulation. Antigen specific responses were expressed as (OD590 [Stimulated Culture]−OD590 [Spontaneous proliferation culture])/OD590 [Spontaneous proliferation culture].
# [3] = test system: plasma lipoprotein cholesterol and triglyceride; experiment: Antilipidemic activity in hamsters fed hypercholesterolemic diet; type: in vivo, Syrian Golden hamsters; conditions: day 8 of treatment
# Source text: Eighty-five male Syrian Golden hamsters (F1B strain, BioBreeders, Fitchburg Mass.) approximately 8-10 weeks of age were acclimated to individual hanging polystyrene cages with bedding for 1 week and then fed a semipurified hypercholesterolemic diet (HCD) containing 25% casein, 20% hydrogenated coconut oil, 2% safflower oil, and 0.15% cholesterol by weight for 2 weeks prior to initiation of the experimental treatments (Table 1). Hamsters were then bled (Week 0) following an overnight fast (16 hr) to determine plasma concentrations of total cholesterol, HDL-C, nonHDL-C, and triglycerides and divided into 17 groups (n=5/group) with similar starting plasma HDL-C levels, and administered either compound of Formula II or vehicle once per day for 14 days.
# Plasma total cholesterol, HCL-C, nonHDL-C, and triglycerides were then measured at day 8 (prior to gavage that day) and at day 15 (24 hr after last gavage) following and overnight fast (16 hr). Hamsters were maintained in accordance with the guidelines of the Animal Care Committee at the University of Massachusetts-Lowell Research Foundation and the guidelines prepared by the Committee on the Care and Use of Laboratory Animals of the Institute of Laboratory Animal Resources, National Research Council (DHEW publication no 85-23, revised 1985). Hamsters were housed in an environmentally controlled room with an alternating 12-h light/dark cycle and given ad libitum access to food and water except when food is withheld for the experimental protocols.
# Blood was collected via the retro-orbital sinus into heparinized tubes from hamsters fasted for 16 h at days 0, 8, and 15. Plasma was harvested after centrifugation at 1500-×g at room temperature for 10 min and plasma total cholesterol and triglyceride concentrations were measured enzymatically. Plasma LDL cholesterol (combination of very low-density, intermediate, and low-density lipoprotein-cholesterol) was precipitated with phosphotungstate reagent and HDL cholesterol was measured in the supernatant. The concentration of LDL cholesterol was calculated as the difference between plasma TC and HDL cholesterol. The accuracy and precision of the procedures used for the measurements of plasma TC and HDL cholesterol were maintained by participation in the Lipid Standardization Program of the Centers for Disease Control and the National Heart, Blood and Lung Institute (Atlanta, Ga.). All reagents used were supplied by Sigma-Aldrich (St. Louis, Mo.). All assays were performed using a Cobas Mira Plus® (Cobas Mira Plus® is a registered trademark of Roche Diagnostic Systems, Inc.) clinical chemistry autoanalyzer using 10 μl of plasma for each sample (Roche Pharmaceuticals, Basel, Switzerland).
# [4] = gavaged ×5/week (Formula III 40 mg/kg; prednisolone 10 mg/kg)
# [5] = injected i.p. ×3/week (Formula III 40 mg/kg; Enbrel 100 μg)
Molecule,number of involved (arthritic) paws [1],"arthritis score [1, 4]","arthritis score ([1]; gavaged ×5/week (Formula III 40 mg/kg; prednisolone 10 mg/kg), listed as prednisolone)",terminal anti-CII antibody levels compared with titers at disease onset [2],terminal anti-CII antibody levels compared with control mice [2],reduction of total serum Ig levels at the terminal bleed vs control mice (total serum Ig),"arthritis score [1, 5]",lymph node cell response to LPS (lymph node cells),plasma HDL-C change compared to vehicle control ([3]; 0.9 mg/kg once per day) [%],plasma nonHDL-C change compared to vehicle control ([3]; 0.9 mg/kg once per day) [%],plasma total cholesterol change compared to vehicle control ([3]; 0.9 mg/kg once per day) [%],plasma triglycerides change compared to vehicle control ([3]; 0.9 mg/kg once per day) [%],plasma HDL-C change compared to vehicle control ([3]; 1.8 mg/kg once per day) [%],plasma nonHDL-C change compared to vehicle control ([3]; 1.8 mg/kg once per day) [%],plasma total cholesterol change compared to vehicle control ([3]; 1.8 mg/kg once per day) [%],plasma triglycerides change compared to vehicle control ([3]; 1.8 mg/kg once per day) [%],plasma HDL-C change compared to vehicle control ([3]; 3.6 mg/kg once per day) [%],plasma nonHDL-C change compared to vehicle control ([3]; 3.6 mg/kg once per day) [%],plasma total cholesterol change compared to vehicle control ([3]; 3.6 mg/kg once per day) [%],plasma triglycerides change compared to vehicle control ([3]; 3.6 mg/kg once per day) [%]
"C[C@]12C=CC(=O)C=C1CC[C@@H]1[C@@H]2[C@@H](O)C[C@@]2(C)[C@H]1CC[C@]2(O)C(=O)CO [Prednisolone, prednisolone, reference compound]",significantly lower number of arthritic paws,significant reduction,significantly reduced the arthritis score,minor decrease,significant reduction,not significantly different,,,,,,,,,,,,,,
COc1cccc2c1[n+]([O-])c1cccc(O)c1[n+]2[O-] [compound of Formula III],did not significantly influence the number of involved paws,did not exert a statistically significant effect,,maintenance of titers equivalent to the levels at onset,significant reduction,not significantly different,marked effect; also recorded: significant reduction,significant reduction,−2,−36,−27,−37,7,−24,−17,−14,−4,−26,−21,−20
Enbrel,significantly lower number of arthritic paws,,,,,,significantly reduced the arthritis score; also recorded: significant reduction,,,,,,,,,,,,,

# Source: US20080269231A1, “Phenazine Compounds and Use Thereof in Autoimmune and Inflammatory Disease” (JJ Pharma, Inc., priority 2007, published 2008)
